Data taken from the NIST ThermoML archive (doi:10.1016/j.jct.2019.105881).

Assay: wn = mass fraction of the nth substance listed
Conditions: 100 kPa, Liquid, transient hot wire

CCCCCCCCCCCC(=O)OC [methyl dodecanoate] + CCCCCO
Conditions	thermal conductivity [W/m/K]
287.79 K, w1 = 0.6756	0.1488
287.86 K, w1 = 0.2997	0.1497
287.92 K, w1 = 0.5029	0.1493
288 K, w1 = 0.1021	0.1503
288.01 K, w1 = 0.8983	0.1482
297.82 K, w1 = 0.1021	0.1486
297.86 K, w1 = 0.5029	0.1475
297.95 K, w1 = 0.6756	0.1469
298.07 K, w1 = 0.2997	0.148
298.1 K, w1 = 0.8983	0.1456
307.72 K, w1 = 0.1021	0.1468
307.78 K, w1 = 0.6756	0.145
307.8 K, w1 = 0.5029	0.1453
307.84 K, w1 = 0.2997	0.1455
307.9 K, w1 = 0.8983	0.1441
317.72 K, w1 = 0.1021	0.1441
317.72 K, w1 = 0.2997	0.1435
317.8 K, w1 = 0.6756	0.1424
317.85 K, w1 = 0.5029	0.1429
317.85 K, w1 = 0.8983	0.1419
327.58 K, w1 = 0.1021	0.1422
327.68 K, w1 = 0.2997	0.1412
327.7 K, w1 = 0.6756	0.1407
327.72 K, w1 = 0.5029	0.141
327.87 K, w1 = 0.8983	0.1397
337.42 K, w1 = 0.1021	0.1399
337.53 K, w1 = 0.2997	0.139
337.67 K, w1 = 0.5029	0.1389
337.76 K, w1 = 0.6756	0.1385
337.85 K, w1 = 0.8983	0.1373
347.5 K, w1 = 0.2997	0.137
347.65 K, w1 = 0.1021	0.138
347.66 K, w1 = 0.5029	0.1368
347.7 K, w1 = 0.8983	0.1352
347.78 K, w1 = 0.6756	0.1356
357.16 K, w1 = 0.1021	0.1364
357.47 K, w1 = 0.2997	0.135
357.65 K, w1 = 0.5029	0.1348
357.73 K, w1 = 0.6756	0.1335
357.79 K, w1 = 0.8983	0.1332

CCCCCCCCCCCC(=O)OC [methyl dodecanoate] + CCCCO
Conditions	thermal conductivity [W/m/K]
287.91 K, w1 = 0.3009	0.1499
287.94 K, w1 = 0.1013	0.1515
287.95 K, w1 = 0.5027	0.1492
288.07 K, w1 = 0.6997	0.1488
288.14 K, w1 = 0.8996	0.1485
297.76 K, w1 = 0.1013	0.1489
297.9 K, w1 = 0.6997	0.1469
297.92 K, w1 = 0.5027	0.1471
297.95 K, w1 = 0.3009	0.1475
298.02 K, w1 = 0.8996	0.1463
307.79 K, w1 = 0.1013	0.1465
307.81 K, w1 = 0.3009	0.1457
307.83 K, w1 = 0.5027	0.1452
307.96 K, w1 = 0.8996	0.1441
307.99 K, w1 = 0.6997	0.1445
317.67 K, w1 = 0.3009	0.1434
317.75 K, w1 = 0.1013	0.144
317.8 K, w1 = 0.5027	0.1426
317.83 K, w1 = 0.8996	0.1422
317.88 K, w1 = 0.6997	0.1424
327.6 K, w1 = 0.1013	0.1419
327.69 K, w1 = 0.3009	0.1411
327.94 K, w1 = 0.5027	0.14
327.94 K, w1 = 0.6997	0.1398
328.11 K, w1 = 0.8996	0.139
337.45 K, w1 = 0.3009	0.1386
337.47 K, w1 = 0.1013	0.1395
337.93 K, w1 = 0.5027	0.1378
337.95 K, w1 = 0.8996	0.1371
337.96 K, w1 = 0.6997	0.1375
347.23 K, w1 = 0.1013	0.1368
347.28 K, w1 = 0.3009	0.1361
347.67 K, w1 = 0.6997	0.1354
347.73 K, w1 = 0.5027	0.1358
347.86 K, w1 = 0.8996	0.135
357.25 K, w1 = 0.3009	0.1333
357.28 K, w1 = 0.1013	0.1342
357.71 K, w1 = 0.8996	0.1322
357.82 K, w1 = 0.5027	0.133
357.87 K, w1 = 0.6997	0.1327

CCCCCCCCCCCC(=O)OC [methyl dodecanoate] + CCCO
Conditions	thermal conductivity [W/m/K]
287.68 K, w1 = 0.6993	0.1497
287.9 K, w1 = 0.298	0.1522
287.91 K, w1 = 0.1	0.1542
288 K, w1 = 0.4998	0.1509
288.06 K, w1 = 0.8996	0.1484
297.73 K, w1 = 0.6993	0.1473
297.79 K, w1 = 0.1	0.1517
297.85 K, w1 = 0.4998	0.1484
297.85 K, w1 = 0.8996	0.1467
297.93 K, w1 = 0.298	0.1494
307.66 K, w1 = 0.1	0.1492
307.76 K, w1 = 0.4998	0.1457
307.83 K, w1 = 0.298	0.1474
307.89 K, w1 = 0.8996	0.1445
308.03 K, w1 = 0.6993	0.1452
317.53 K, w1 = 0.298	0.1451
317.62 K, w1 = 0.1	0.1474
317.67 K, w1 = 0.4998	0.1436
317.86 K, w1 = 0.6993	0.1429
318.02 K, w1 = 0.8996	0.1422
327.34 K, w1 = 0.298	0.1424
327.67 K, w1 = 0.1	0.1446
327.67 K, w1 = 0.4998	0.1412
327.68 K, w1 = 0.8996	0.1398
328.03 K, w1 = 0.6993	0.1405
337.22 K, w1 = 0.1	0.1423
337.4 K, w1 = 0.298	0.14
337.64 K, w1 = 0.4998	0.1391
337.82 K, w1 = 0.6993	0.1384
337.85 K, w1 = 0.8996	0.1377
347.19 K, w1 = 0.1	0.139
347.24 K, w1 = 0.298	0.1374
347.52 K, w1 = 0.4998	0.1368
347.82 K, w1 = 0.6993	0.1362
347.93 K, w1 = 0.8996	0.135
357.25 K, w1 = 0.1	0.1365
357.44 K, w1 = 0.298	0.1351
357.79 K, w1 = 0.4998	0.1344
357.91 K, w1 = 0.6993	0.1337
357.93 K, w1 = 0.8996	0.1326
